Measurements taken from the supplement of paper PMC5844555.

Key:
Assay in all cases: 3' UTR reporter interaction score (median-centred robust z-score of log2 firefly/Renilla activity); higher = less repression of the 3' UTR reporter
Conditions in all cases: HEK293T; 48 h
BRCA2 = tested on: BRCA2
Summary of the method: (§1)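 Using DharmaFECT Duo, HEK293T cells (10,000/well, 96-well plates) were co-transfected with 2.5 pmol miRNA mimic, 100 ng firefly luc2P reporter containing the gene's 3' UTR and 20 ng Renilla pRL-TK control, and dual-luciferase activity was read 48 h later. The interaction score is the log firefly/Renilla ratio as a per-plate robust z-score (median, median absolute deviation), median-centred per miRNA, averaged over at least two independent screens; lower, more negative values indicate interaction.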

EZH2 = tested on: EZH2
Summary of the method: as §1

FBXW7 = tested on: FBXW7
Summary of the method: as §1

HRAS = tested on: HRAS
Summary of the method: as §1

MYB = tested on: MYB
Summary of the method: as §1

MYCN = tested on: MYCN
Summary of the method: as §1

MYC = tested on: MYC
Summary of the method: as §1

MYT1L = tested on: MYT1L
Summary of the method: as §1

NOTCH1 = tested on: NOTCH1
Summary of the method: as §1

PHF6 = tested on: PHF6
Summary of the method: as §1

PHOX2B = tested on: PHOX2B
Summary of the method: as §1

RB1 = tested on: RB1
Summary of the method: as §1

TP53 = tested on: TP53
Summary of the method: as §1

ZEB2 = tested on: ZEB2
Summary of the method: as §1

| Sequence | 3' UTR reporter interaction score (BRCA2) | 3' UTR reporter interaction score (EZH2) | 3' UTR reporter interaction score (FBXW7) | 3' UTR reporter interaction score (HRAS) | 3' UTR reporter interaction score (MYB) | 3' UTR reporter interaction score (MYCN) | 3' UTR reporter interaction score (MYC) | 3' UTR reporter interaction score (MYT1L) | 3' UTR reporter interaction score (NOTCH1) | 3' UTR reporter interaction score (PHF6) | 3' UTR reporter interaction score (PHOX2B) | 3' UTR reporter interaction score (RB1) | 3' UTR reporter interaction score (TP53) | 3' UTR reporter interaction score (ZEB2) |
| --- | --- | --- | --- | --- | --- | --- | --- | --- | --- | --- | --- | --- | --- | --- |
| GAAGUUGUUCGUGGUGGAUUCG | 0.514 | -2.16 | -1.37 | 0.113 | 0.448 | -0.332 | 0.185 | -1.32 | 0.409 | -0.491 | -0.358 | 1.05 | -1.17 | 0.478 |
| UCUUGUGUUCUCUAGAUCAGU | 0.0649 | 0.661 | -0.787 | 0.641 | 0.224 | 0.747 | -0.281 | -0.612 | -0.00434 | -1.56 | -1.16 | 0.632 | -0.0759 | 0.366 |
| UGAGGUAGUAGUUUGUGCUGU | 0.294 | -4.28 | 0.144 | 1.26 | 1.1 | -3.97 | -3 | 0.99 | -0.444 | 0.213 | -1.23 | 0.903 | 0.534 | 0.496 |
| GUCCCUCUCCAAAUGUGUCUUG | 0.364 | 0.871 | -1.89 | 0.01 | 1.83 | 1.77 | 1.7 | -0.216 | -0.392 | -1.08 | -0.224 | -0.267 | 0.415 | -3.03 |
| ACAGUCUGCUGAGGUUGGAGC | 0.137 | 0.0759 | -0.12 | -0.732 | -0.0786 | 0.116 | -0.486 | -0.4 | 0.0668 | 0.259 | 0.189 | -1.36 | -0.638 | 1.65 |
| UUAUAAUACAACCUGAUAAGUG | 0.693 | 0.963 | -0.529 | 0.161 | -0.653 | 0.404 | 1.32 | -1.13 | -0.345 | -0.286 | -0.00808 | 1.94 | -0.443 | -0.469 |
| GUGAGUCUCUAAGAAAAGAGGA | 0.654 | -0.0137 | 1.15 | -1.03 | -1.86 | -0.777 | -0.241 | 0.22 | 0.287 | 0.947 | -1.54 | -0.543 | 1.06 | 0.201 |
| CAAAGCGCUUCCCUUUGGAGC | -0.805 | 0.322 | 0.503 | 0.795 | -0.305 | 0.103 | -0.581 | -0.495 | 0.413 | 0.27 | 0.957 | -0.468 | -0.385 | 0.353 |
| UGUGCUUGCUCGUCCCGCCCGCAG | 0.879 | -0.199 | -0.0879 | -0.789 | -0.522 | -0.114 | 0.429 | 0.198 | 0.256 | 1.4 | 0.4 | 0.514 | -0.328 | 0.763 |
| CUUGGUUCAGGGAGGGUCCCCA | -0.342 | 0.379 | -2.49 | -0.543 | 0.238 | 0.421 | -0.0193 | 0.48 | -0.824 | 0.112 | 0.231 | -0.223 | -0.22 | 1.64 |
| AGUGGGGAACCCUUCCAUGAGGA | 0.0202 | -0.974 | 0.423 | 0.144 | 0.186 | 0.0621 | -0.465 | -1.79 | -0.0192 | 0.14 | -0.69 | 0.472 | -3.21 | 1.02 |
| ACUUGUAUGCUAGCUCAGGUAG | 0.171 | 0.301 | 0.132 | 0.169 | -0.993 | -0.194 | 0.231 | 0.252 | -2.55 | 0.16 | 0.171 | 0.468 | -0.611 | 0.0953 |
| UACCCUGUAGAUCCGAAUUUGUG | 0.0748 | 1.17 | -0.445 | 1.04 | 0.0301 | -0.296 | 0.449 | -2.08 | -2.62 | -0.356 | -1.36 | 0.397 | -0.88 | -1.18 |
| UCAGUGCACUACAGAACUUUGU | -1.23 | -0.364 | 0.473 | -0.763 | -1.33 | 0.963 | 0.0974 | 1.34 | 0.169 | 0.792 | -0.0276 | 1.18 | -0.523 | 1.75 |
| CAAAGAAUUCUCCUUUUGGGCUU | -0.174 | -0.313 | -0.499 | 0.0982 | 0.952 | 0.453 | -0.381 | 0.219 | 1.33 | -0.267 | -0.413 | 1.54 | -0.294 | -0.283 |
| AGAGGUAUAGGGCAUGGGAAAA | 0.942 | -0.166 | -0.74 | -0.616 | 0.665 | -2.96 | 0.244 | 0.692 | 0.463 | 0.541 | -0.404 | -0.615 | -0.403 | 1.12 |
| GCGUGCGCCGGCCGGCCGCC | 0.432 | 0.589 | 0.516 | -0.392 | -0.399 | -1.25 | -1.82 | -0.142 | -0.272 | 1.71 | 0.436 | -0.23 | 0.961 | -0.647 |
| GCCUGCUGGGGUGGAACCUGG | 0.403 | -0.39 | -0.733 | -0.0157 | 0.0969 | -0.962 | 0.0868 | -0.443 | -0.0223 | 0.254 | 0.0382 | 1.37 | -0.747 | 0.26 |
